Results: patent publication US20130096138A1, “NOVEL THIOUREA OR UREA DERIVATIVE, PREPARATION METHOD THEREOF, AND PHARMACEUTICAL COMPOSITION FOR PREVENTING OR TREATING AIDS, CONTAINING SAME AS ACTIVE INGREDIENT” (AVIXGEN INC., priority 2010, published 2013)

Tested on: HIV
Experiment: Assay for inhibitory activity against HIV (p24 ELISA, infected MT-4 cells)
Type: cell-based
Conditions: Human immunodeficiency virus 1, MT4, MT-4 cells infected with pNL4-3-derived HIV, 48 hrs + additional 48 hrs culture, read-out: Conc. for Inhibition of HIV Activity (IC50)
Protocol: The thiourea or urea derivatives of the present invention were assayed for inhibitory activity against HIV as follows.
A pNL4-3 vector carrying an HIV genome was transduced into 293FT cells. […] 293FT cells were seeded at a density of 3.0×10^5 cells/well into 6-well plates containing antibiotic-free DMEM supplemented with 10% FBS and grown for 48 hrs. Upon 90˜95% confluency, the transduction was performed.
The DNA (pNL4-3) was added at a final concentration of 10 ng/mL to 250 μL of the reduced serum medium Opti-MEM I (GIBCO™, USA). Separately, 4 μL of Lipofectamine™ 2000 (Invitrogen, USA) was mixed with 250 μL of Opti-MEM I (GIBCO™), and incubated at room temperature for 5 min. The DNA (pNL4-3) was mixed at a ratio of 1:2 with the lipofectamine and reacted at room temperature for 20 min to form a DNA-lipofectamine complex. After removal of the medium from the cell culture, the DNA-lipofectamine complex was added to the cells and incubated for 4 hrs in a CO2 incubator. Then, the cell culture medium was replaced with a fresh antibiotic-free, 10% FBS-supplemented DMEM, followed by incubation for an additional 48 hrs. The HIV-infected cell culture was centrifuged at 1,500 rpm for 5 min to give a virus supernatant.
MT-4 cells were plated at a density of 1.0×10^6 cells/mL into 6-well plates containing RPMI supplemented with 10% FBS, and incubated for 4 hrs before infection at a ratio of 1:1 with the virus supernatant. The cells were incubated for 48 hrs in a CO2 incubator, after which the culture medium was replaced with a fresh one. Again, incubation was continued for an additional 72 hrs to amplify the virus. After centrifugation at 1,500 rpm for 5 min, the virus supernatant thus obtained was examined for virus density using a Virononstika HIV-1 Antigen Microelisa system kit (bioMerieux, Inc. Netherland).
2. Assay for Inhibitory Activity against HIV
The thiourea or urea derivatives prepared in Examples 1 to 94 were dissolved in DMSO to prepare respective 10 mM or 20 mM stocks, and stored at −20° C. The stocks were diluted to a starting concentration of 200 μM in DMSO before use in experiments.
MT-4 cells were suspended at a density of 4×10^5 cells in 200 μL of RPMI 1640 (Gibco, 10% FBS) per well of 24-well plates, and infected with 200 μL of a virus supernatant containing 2×10^5 pg/mL to give a total volume of 400 μL. After the stocks of the thiourea or urea derivatives were […] to 200 μM in DMSO, 2 μL of each dilution was added to the cells to a final concentration of 1 μM or less. For a positive control, 10 μM AZT (azidothymidine,Sigma, USA) was used at a final concentration of 50 nM while DMSO was used at a final concentration of 0.5% as a negative control. The cells were cultured for 48 hrs in a CO2 incubator (37° C., 5% CO2), and the culture medium was replaced by RPMI 1640 containing the thiourea or urea derivative at a final concentration of 1 μM, followed by incubation for an additional 48 hrs. Virus soups were separated from cells by centrifugation at 1,500 rpm for 5 min and then at 13,000 rpm for 5 min. ELISA for p24 concentrations was carried out using a Virononstika HIV-1 Antigen Microelisa system kit (bioMerieux, Inc. Netherland) to determine the inhibitory activity of each of the thiourea or urea derivatives against HIV.

Structure (SMILES) | IC50
CC(C)(C)c1ccc(C(=O)NC(=S)Nc2cccc(Cl)c2)cc1 [Example 38, 1-(4-tert-butyl-benzoyl)-3-(3-chloro-phenyl)-thiourea] | 0.3 µM
CC(C)(C)c1ccc(C(=O)NC(=S)Nc2ccccn2)cc1 [Example 37, 1-(4-tert-butyl-benzoyl)-3-(pyridin-2-yl)-thiourea] | 0.5 µM
CC(C)(C)c1ccc(C(=O)NC(=S)NC2CCCCC2)cc1 [Example 16, 1-(4-tert-butyl-benzoyl)-3-cyclohexyl-thiourea] | 0.5 µM
CC(C)(C)c1ccc(C(=O)NC(=S)Nc2cccc3ncccc23)cc1 [Example 50, 1-(4-tert-butyl-benzoyl)-3-(quinolin-5-yl)-thiourea] | 1 µM
CC(C)(C)c1ccc(C(=O)NC(=S)Nc2cccc3c(O)cccc23)cc1 [Example 1, 1-(4-tert-Butyl-benzoyl)-3-(5-hydroxy-naphthalen-1-yl)-thiourea] | 0.03 µM
